Results on 3 compounds are retold here after patent publication US5223519A, “4-hydroxypyridine derivatives, useful for treating circulatory diseases” (Mercian Corporation, priority 1990, dated 1993).

Where two headings read alike, the source gives them in different places.

Series [1] deals with norepinephrine- or KCl-contracted rat thoracic aorta. Nature of the series: Vasodilating activity: relaxation of contracted thoracic aorta helical strips. More on the design: species or system Male Sprague-Dawley rats. As to conditions: for IC50: cumulative application, pH 7.4, 37° C.; for relaxation of the aorta compared with papaverine: vs papaverine, norepinephrine or KCl contraction. The protocol: Male Sprague-Dawley rats weighing 250-300 g were sacrificed by cervical dislocation and exsanguinated. The thoracic aorta was dissected out and helical strips, 2 mm wide and 10 mm long, were prepared. Each preparation was mounted in a 10 ml organ bath containing physiological saline solution (Krebs-Henzeleit solution, pH 7.4). The solution was gassed with 95% O2 - 5% CO2 at 37° C. and a resting tension of 0.5 g was applied. Tissues were allowed to equilibrate for at least 60 minutes before the application of test substances. The developed tension was measured isometrically with a force-displacement transducer and recorded on pen-recorder. Tissues had been contracted with 10^-7 M norepinephrine or isotonic 60 mM KCl and test substances were applied cumulatively.

The test system of another series is ICR male mice. Briefly: Acute toxicity in mice (i.v.). The following applies: five mice per dose. The format is in vivo. The protocol: The acute toxicity of Mer-A2026A was determined in ICR male mice. Five mice were used at each dose.
The test system of a further series is blood pressure. Nature of the series: Depressor effect in anesthetized spontaneously hypertensive rats (i.v.). Type of series: in vivo, Male spontaneously hypertensive rats (SHR rats). More on the design: Vasodepression / Duration time: unit not given here. The following applies: for Duration time / Vasodepression: injected into femoral vein. The protocol: Male spontaneously hypertensive rats (SHR rats), 25-31 weeks old, were anesthetized with 40 mg/kg of pentobarbital sodium injected intraperitoneally. For the measurement of blood pressure, a cannula was inserted into the left carotid artery and connected to a multipurpose polygraph through a pressure transducer. Each animal was allowed to equilibrate for at least 30 minutes before injection and test substances were injected into the femoral vein through a polyethylene tube.

Where [2] appears, read: 10^-7 M norepinephrine contraction, read-out: IC50 Norepinephrine (concentration needed to induce a 50% decrease in norepinephrine-induced contraction).
[3] abbreviates: isotonic 60 mM KCl contraction, read-out: IC50 Isotonic KCl (concentration needed to induce a 50% decrease in KCl-induced contraction).

With `C/C=C(\C)C(O)C(C)/C=C(C)/C=C/C/C(C)=C/Cc1nc(OC)cc(O)c1C` (centres unmarked) [Mer-A2026B], the IC50 in series [1] (setting [2]) came to 770 nM. In series [1] (setting [3]), the IC50 was determined as 400 nM. For the same compound, in series [1], the “relaxation of the aorta compared with papaverine” value is given as “more greatly relaxed the aorta than papaverine”. Besides, in “Solubility”, the “solubility in commonly available organic solvents” value is “soluble” and the solubility in water result was “insoluble”.
On to `COc1cc(O)c(C)c(C/C=C(\C)C/C=C/C(C)=C/C(C)C(O)/C(C)=C/C(C)C)n1` (centres unmarked) [Mer-A2026A], for which the figures for the IC50 in series [1] (setting [2]) and in series [1] (setting [3]) were 200 nM and 1000 nM, respectively. Further, the “relaxation of the aorta compared with papaverine” value in series [1] was “more greatly relaxed the aorta than papaverine”. Besides, the “acute toxicity (survival)” value in the series with ICR male mice (250 μg/Kg intravenous) is given as “all survived”. Further, the “acute toxicity (deaths)” value in the series with ICR male mice (500 μg/Kg intravenous) was “sacrificed the one mouse”. Moreover, the “solubility in commonly available organic solvents” value in the series “Solubility” was “soluble”. In addition, the solubility in water result in “Solubility” was “insoluble”. Also, the Duration time in the series on blood pressure (10 μg/kg) turned out to be 0.2; in the series with blood pressure (30 μg/kg), 9.4; in the series on blood pressure (100 μg/kg) it was 24.5. Moreover, the Vasodepression in the series on blood pressure (10 μg/kg) turned out to be 3.6; with blood pressure (30 μg/kg), 25.0; in the series on blood pressure (100 μg/kg) it was 47.7. Also, the “depressor effect (in words)” value in the series on blood pressure (SHR rats, i.v., refers to Table 3) is “markedly prolonged the duration time and decreased the blood pressure”.
Consider `COc1ccc(Cc2nccc3cc(OC)c(OC)cc23)cc1OC` [Papaverine, reference compound], for which the IC50 in series [1] (setting [2]) stood at 4700 nM; in series [1] (setting [3]), 17000 nM. The same compound registered a Duration time with blood pressure (1000 μg/kg) of 2.2. Besides, in the series on blood pressure (1000 μg/kg), the Vasodepression turned out to be 52.0.
